Measured values published in patent US20230241000A1, “GSK3 INHIBITOR-LOADED NANO FORMULATIONS AS A CANCER IMMUNOTHERAPEUTIC” (The Regents of the University of California, priority 2020, published 2023).
Entries after “also recorded” stand apart in the source; their conditions may differ. Where two headings read alike, the source gives them in different places.

Legend:
GSK3 = conditions: cited from earlier work
[1] = Remote loading of GSK3 inhibitors into silicasomes: encapsulation efficiency and loading capacity; assay type: physicochemical; conditions: for encapsulation efficiency in silicasomes (in words): remote loading at 5, 10 or 20 feed weight %
Description: The overall scheme for the synthesis of silicasome carriers to deliver GSK3 inhibitors is outlined in FIG. 3. Briefly, a large batch (i.e. 120 g) synthesis of bare particles was carried out as previously, yielding ˜70 nm MSNPs (FIG. 3, panel A) (22). […] 20 mg soaked-in MSNPs were then used together with an ethanol suspended lipid solution, comprised of a mixture of 60 mg DSPC:Cholesterol:PE-PEG2000 (molar ratio of 6:4:0.3), for coating with a lipid bilayer by a flow through sonication procedure (FIG. 3, panel B). Following the removal of the non-encapsulated trapping agent, AZD2858, AZD1080, LY2090314, and 1-Azakenpaullone were dissolved in 0.9% saline and incubated with the silicasome carrier to assess the loading capacity in response to different feed weight percentages (FIG. 11).
Four GSK3 inhibitor-laden silicasome formulations were analyzed to assess encapsulation efficiency and loading capacity. 100 μL of the silicasomes suspension at 10 mg/mL in 0.9% NaCl (1 mg silicasomes) was added to AZD1080, AZD2858, LY2090314, and 1-azakenpaullone solutions, which were prepared by adding 50, 100 or 200 μg of each inhibitor to 900 μL water. These drug mass quantities provided feed weight percentages of 5, 10, and 20%, in comparison to the silicasome mass. Following execution of the remote loading procedure as detailed above, the crude solutions were used to assess absorbance in a glass bottom 96-well plate (Total Drug Absorbance). Silicasomes were centrifuged at 21,000×g for 15 minutes to pellet the particles. After removal of the supernatant, the silicasomes were re-suspended in aa fresh 0.9% NaCl solution. This was repeated three times to remove any unloaded inhibitor. The silicasome solution was then sampled and absorbance was measured to determine Loaded Drug Absorbance. Concentration-matched unloaded ‘blank’ silicasomes also had absorbance measured (Silicasome Blank Absorbance). Encapsulation efficiency was calculated by the following formula: […]
All measurements were taken using a SpectraMax M5 plate reader (Molecular Devices). All solutions were diluted 1/10 in 0.9% NaCl solution prior to absorbance reads. The absorbances used for each compound were: 418 nm for AZD1080, 383 nm for AZD2858, 213 nm for LY2090314, and 334 nm for 1-azakenpaullone.

[2] = Phase 2 candidate, trial abandoned; literature (54); cited from earlier work
T-bet = conditions: T-cells; literature (10, 13, 14); cited from earlier work
Tbx21 expression = assay: RT-qPCR of Tbx21 in anti-CD3 activated primary murine T-cells; assay type: cell-based, C57BL/6 mouse; conditions: 10 μM, 72 hours, normalized against Gapdh
Description: (§1) This is compatible with the translational expression of T-bet, a transcription factor that interferes in PD-1 expression (FIG. 1, panel B).
(§2) Wells of a 96-well tissue culture plate were coated with anti-mouse CD3 antibody (Ultra-LEAF, Biolegend). 7.5 μL of 1 mg/mL antibody solution was diluted in 1 mL of 1×PBS, before 50 μL of the dilution was added to each plate well for 2 hours at 37° C. The wells were then thoroughly washed 3× with 1×PBS.
(§3) T-cells were extracted from C57BL/6 mouse spleens, using a standard procedure with minor modifications (71). Two mouse spleens were mechanically disrupted and the released cells were passed through a 70 μm filter. Red blood cells were lysed using RBC lysis buffer (eBioscience) at 4° C. for 5 minutes. 10 mL of 1×PBS was added to stop the lysis process, following which cells were pelleted at 300×g for 5 minutes. […]
(§4) Cells were collected and RNA was extracted using Direct-zol RNA MiniPrep Plus kits (Zymo), as per the manufacturer's instructions. Extracted RNA was converted into cDNA using SuperScript III First-Strand Synthesis System kits (Invitrogen). cDNA from treated T-cells was analyzed by RT-PCR using a LightCycler 480 instrument (Roche) and the LightCycler 480 SYBR Green I Master kit (Roche), per manufacturer's instructions. cDNA was analyzed using forward and reverse primers for Pdcd1, Tbx21, and Gapdh as a control, as described previously (10, 14). […]

Pdcd1 expression = assay: RT-qPCR of Pdcd1 in anti-CD3 activated primary murine T-cells; assay type: cell-based, C57BL/6 mouse; conditions: 10 μM, 72 hours, normalized against Gapdh
Description: as §1, §2, §3, §4

[3] = tested on: CD8+ T-cells in MC38 tumors; assay: Flow cytometry of tumor-infiltrating CD8+ T-cells in MC38 tumors; assay type: in vivo, C57BL/6 mice
Text: In order to address the change in the immunological landscape with treatment, we asked whether sAZD1080 could impact the immune parameters that underpin treatment efficacy for immune checkpoint blocking antibodies. These include the CD8^+ cell number, the abundance of PD-1 expression on these cells, perforin release and the generation of cancer cell death, as reflected by activated caspase 3. For the first analysis, tumor cell digests were used to assess the number of CD8^+/CD107a^+/granzyme B^+ lymphocytes by flow cytometry (14, 30). […] In order to assess the status of PD-1 expression on CD8+ cells, flow cytometry was used to assess the % of […] cells in the tumor digests (14, 31).
Tumors were harvested from MC38 mice after sacrifice. Tumors larger than 100 mm^3 were divided in two, with one half preserved for histology and the other half used to conduct flow cytometry. To prepare samples for flow cytometry, tumor chunks of 2-3 mm^3 were incubated in an enzyme cocktail (1 mg/mL collagenase type IV, 2000 U DNase type IV, 0.1 mg/mL hyaluronidase type V in 1×HBSS) for 1 hour, and the digests passed through a 70 μm nylon filter. Cells were pelleted and washed in HBSS.
Cells were diluted in cell staining buffer, pelleted by centrifuging at 350×g for 5 minutes, and washed twice. […]

MC38 colon cancer = assay: MC38 syngeneic colon cancer model, subcutaneous tumor growth; assay type: in vivo, C57BL/6 mice; conditions: MC38; three administrations; n=15 per group
Description: Treatment was repeated every three days for a total of three administrations. Mice were sacrificed four days after the final treatment. The study was executed as two separate experiments, using animal group sizes of n=6 and n=9, respectively. […] The first set of analyses was performed on the tumor volume growth curves (FIG. 5, panel A), impact on final tumor volumes (FIG. 5, panel B) and tumor weight (FIG. 5, panel C) at the time of sacrifice.
MC38 cells, stably transfected with a luciferase vector, were inoculated into the right flank of C57BL/6 mice, using 0.7×10^6 cells in 40% Matrigel 1×PBS solution. Tumors were allowed to grow to a size of ˜50 mm^3 prior to the initiation of treatment, approximately 14 days after initial inoculation. Mice with outlier tumor sizes (either too small or too large) were excluded from further study. The remaining animals were randomly assigned to the different treatment groups. Mice were treated with three injections, set three days apart, and were sacrificed 4 days after the final treatment administration. […] Two separate experiments were performed, the first with n=6 mice per group and the second with n=9 animals.

[4] = values provided by chemical vendors (Cayman Chemical, Selleck Chemicals)

Q: For Nc1cccc(-c2cc3c(Oc4cccc(O)c4)ncnc3[nH]2)c1 [TWS119], which IC50 (GSK3; [4]) is on record?
A: 40 nM

Q: For BIO-acetoxime, which IC50 (GSK3; [4]) is on record?
A: 10 nM

Q: With CN1CCN(S(=O)(=O)c2ccc(-c3cnc(N)c(C(=O)Nc4cccnc4)n3)cc2)CC1 [AZD2858] as the compound, how does the “solubility during remote loading (in words)” value ([1]; dissolved in 0.9% saline, incubated with silicasome carrier, feed weight %) read?
A: precipitated; also recorded: poor solubility

Q: And the “encapsulation efficiency in silicasomes (in words)” value [1]?
A: moderate efficiency

Q: What does the source list for O=C1NC(=O)C(c2cnc3ccccn23)=C1c1cn2c3c(cc(F)cc13)CN(C(=O)N1CCCCC1)CC2 [LY2090314]?
A: IC50 (GSK3; [4]): 0.9 nM; encapsulation efficiency in silicasomes (in words) [1]: moderate efficiency; PK and bioavailability in clinical trial [2]: poor PK and drug bioavailability

Q: Which IC50 (GSK3) does the source give for CHIR98014 here?
A: 0.58 nM

Q: With Cc1[nH]c2ccccc2c1C1=C(NCCc2ccc(F)cc2)C(=O)N(C)C1=O [IM-12] as the compound, how does the IC50 (GSK3; [4]) read?
A: 53 nM

Q: For O=c1cc(-c2ccc(O)c(O)c2O)oc2ccccc12 [2-D08], which IC50 (GSK3; [4]) is on record?
A: 11 nM

Q: With Indirubin-3′-monoxime as the compound, how does the IC50 (GSK3; [4]) read?
A: 22 nM

Q: Which results are given for O=C1NC(=O)C(c2ccccc2[N+](=O)[O-])=C1Nc1ccc(O)c(Cl)c1 [SB415286]?
A: expression of T-bet (T-bet): increase; Tbx21 mRNA expression (Tbx21 expression): increased; reduction in Pdcd1 mRNA expression (Pdcd1 expression): ~2.2 fold; % of CD8/PD-1+ cells in the tumor digests [3]: did not impact; number of tumor-free animals at time of sacrifice (out of 15) (MC38 colon cancer): 1/15

Q: Which “encapsulation efficiency in silicasomes (in words)” value [1] does the source give for O=C1Cc2c([nH]c3ccc(Br)cc23)-c2ncccc2N1 [1-Azakenpaullone] here?
A: comparatively low
